Results from US7378234B2, “Method for isolating hepatitis C virus peptides” (Intercell AG, priority 2002, dated 2008).
“Also recorded” adds a separate entry of the source.

Assays:
[1] = test system: HLA-DRB1*0401 transgenic mice; assay: Immunization of HLA-DRB1*0401 transgenic mice (peptide + CpI), splenocyte IFN-gamma ELISpot; format: in vivo, mouse; details: for immunogenicity in HLA-DRB1*0401 transgenic mice (in words): Example II, IFN-gamma ELISpot of splenocytes; for Immunogenicity, peptide-specific IFN-gamma-producing cells, DRB1*0401: HLA-DRB1*0401 transgenic mice, splenocytes
Procedure: (§1) Immunogenicity of synthetic HCV-derived peptides was tested in HLA-DRB1*0401- and HLA-A*0201-transgenic mice as follows: Groups of 3 mice (female, 8 weeks of age) were injected subcutaneously into the flank (in total 100 μg of peptide +30 μg oligodinucleotide CpI (Purimex, Göttingen, Germany) per mouse).
(§2) Mouse splenocyte ELIspot assay for single cell IFN-gamma release ELISpot plates (MAHA S4510, Millipore, Germany) were rinsed with PBS (200 μl/well), coated with anti-mouse IFN-gamma mAb (clone R46A2; 100 μl/well of 5 μg/ml in 0.1 M NaHCO3, pH 9.2-9.5) and incubated overnight at 4° C. Plates were washed four times with PBS/0.1% Tween 20 and incubated with PBS/1% BSA (200 μl/well) at room temperature for 2 h to block nonspecific binding. Spleen cells from vaccinated mice were prepared and plated at 1×10^6-3×10^5 cells/well and incubated overnight at 37° C./5% CO2 either in the presence of the immunizing antigen (peptide), control peptides or with medium alone. Subsequently, plates were washed four times and incubated with biotinylated anti-mouse IFN-gamma mAb (clone AN18.17.24, 100 μl/well of 2 μg/ml in PBS/1% BSA) for 2 h at 37° C. After washing, streptavidin-peroxidase (Roche Diagnostics, Vienna, Austria) was added ( 1/5000 in PBS, 100 μl/well) and plates were incubated at room temperature for 2 additional hours. Subsequently, substrate was added to the washed plates (100 μl/well of a mixture of 10 ml 100 mM Tris pH 7.5 supplemented with 200 μl of 40 mg/ml DAB stock containing 50 μl of 80 mg/ml NiCl2 stock and 5 μl of 30% H2O2). The reaction was stopped after 20-30 minutes by washing the plates with tap water. Dried plates were evaluated with an ELISpot reader (BIOREADER 2000, BioSys, Karben, Germany).
(§3) As summarized in Table 3, some peptides were either immunogenic (+, less than 100 peptide-specific cells among a million splenocytes) or even strongly immunogenic (++, more than 100 peptide-specific cells among a million splenocytes) in DR4- and/or A*0201-transgenic mice.

[2] = test system: HLA-A*0201 transgenic mice; assay: Immunization of HLA-A*0201 transgenic mice (peptide + CpI), splenocyte IFN-gamma ELISpot; format: in vivo, mouse; details: for immunogenicity in HLA-A*0201 transgenic mice (in words): Example II, IFN-gamma ELISpot of splenocytes; for Immunogenicity, peptide-specific IFN-gamma-producing cells, A*0201: HLA-A*0201 transgenic mice, splenocytes
Procedure: as §1, §2, §3

[3] = test system: HLA-DRB1*0401 transgenic mice; assay: Vaccination of HLA-DRB1*0401 transgenic mice (peptide + IC31), IFN-gamma ELISpot with spleen cells and CD4+ fraction; format: in vivo, mouse; details: peptide + IC31, whole spleen cells and CD4+ fraction
Procedure: as §2
Groups of 5 mice (HLA-A*0201-, HLA-DRB1*0401- and HLA-B*0702 transgenic mice, male, 8-14 weeks of age) were injected subcutaneous into the hind footpads with 100 μg of peptide +IC31 per mouse (50 μg per footpad). (PCT/EP01/12041, WO 02/32451 A1 and PCT/EP01/06433, WO 01/93905 A1; IC31 is a combination of the immunizer disclosed in WO 01/93905 and WO 02/32451).
6 days after vaccination single cell suspension of pooled spleens were prepared and additionally pure fractions of CD8+ in the case of A2 and B7 tg mice (CD8+ fraction for B7 mice containing 97% of CD8 and 1.5% of CD4 cells and for A2 tg mice 83% of CD8 and 8% of CD4 cells) and CD4+ for DR4tg mice (CD4+ fraction for DR4tg mice containing 98% of CD4 cells and 0.2% of CD8 cells) were separated from the spleen cell suspension using MACS separating kit (Miltenyi, Germany).

HLA-DRB1*0404 = HLA-DRB1*0404 (Homo sapiens, UniProt P01903+P01911, A100R/A169T/F76Y/I96L/K127E/L162R/M171V/N62H/P40V/Q125Y/R42H/S133A/S149N/S66Y/V209L/W38E); assay: Epitope capture / peptide binding, SDS-stability assay, soluble DRB1*0404; details: soluble HLA class II, individual peptide confirmed (Table 2)
[4] = test system: HLA-B*0702 transgenic mice; assay: Vaccination of HLA-B*0702 transgenic mice (peptide + IC31), IFN-gamma ELISpot with spleen cells and CD8+ fraction; format: in vivo, mouse; details: for Immunogenicity, peptide-specific IFN-gamma-producing cells, B*0702: HLA-B*0702 transgenic mice, splenocytes; for specific INF-γ producing T cells / HLA-B*0702 epitope in HLA-B*0702 transgenic mice (in words): peptide + IC31, whole spleen cells and CD8+ fraction
How it was run: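 Transgenic mice (groups of 5, male, 8–14 weeks) vaccinated s.c. in hind footpads with 100 μg peptide + IC31; 6 days later pooled splenocytes or MACS-purified CD8+ (A2, B7) or CD4+ (DR4) fractions restimulated overnight with peptide. IFN-gamma spots counted by ELISpot, 1×10^6–3×10^5 cells/well.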

PBMC (in vitro primed) = assay: IFN-gamma ELIspot after 2 rounds of in vitro priming of human PBMC; format: cell-based; details: donor H03
Procedure: Human PBMCs are repeatedly stimulated with antigen (peptide or peptide mixture) in the presence of IL-2 and IL-7. This leads to the selective oligoclonal expansion of antigen-specific T cells. Responses against individual epitopes can be assessed for instance by IFN-γ ELIspot assays. Freshly thawed PBMCs were cultured in 6 well plates (2-4×10^6/mL viable cells) in RPMI-1640 (GibcoBRL), 1% non-essential amino acids (GibcoBRL, cat# 11140-035), 1% Penicillin (10,000 U/ml)-Streptomycin (10,000 μg/ml) (GibcoBRL, cat#15140-122), 1% L-Glutamine (GibcoBRL), 0.1% beta-mercapto-ethanol (GibcoBRL), 1% Na-pyruvate (GibcoBRL), plus 10% Human AB serum (PAA, Linz, Austria). Peptides (10 μM each) were added to each well. rhIL-7 (Strathmann Biotech) was added at 10 ng/mL final concentration. 20-30 U/mL rhIL-2 (Strathmann Biotech) were added on day 4. On day 10, all cells were removed from plates, washed once in media (as above), and counted. For the next cycle of in vitro priming, viable cells were co-cultivated with autologous gamma irradiated (1.2 gray/min, for 20 minutes) PBMC as feeders (plated at 100,000 per well) and peptides, rh-IL-2 as described above. ELIspot was done as described above, except that 200,000 responder cells (pre-stimulated for 2 rounds of in vitro priming) were used together with 60,000 autologous irradiated […] cells.

HLA-DRB1*0101 = HLA-DRB1*0101 (Homo sapiens, UniProt P01903+P01911, A100R/D57E/F55L/F60I/F76Y/I96L/L162R/M171V/P40L/Q125E/R42F/V115G/Y59C); assay: Epitope capture / peptide binding, SDS-stability assay, soluble DRB1*0101; details: soluble HLA class II, individual peptide confirmed (Table 2)
HLA class II = HLA class II coverage of hotspots and epitopes, compiled from the Examples and Tables of this specification (epitope capture, HLA-transgenic animals, in vitro stimulation of human mononuclear cells); details: source data: Examples and Tables within this specification
Excerpt: Thus, as even individual T-cell epitopes are not obvious within the sequence of a polypeptide, the same is even more the case for hotspots. Several radically different experimental approaches are combined according to the present invention for T-cell epitope identification, including epitope capture, HLA-transgenic animals and in vitro stimulation of human mononuclear cells. All three approaches are systematically applied on overlapping peptides spanning the antigen of interest, enabling comprehensive identification of epitopes (refer to CMV Epitope Capture patent). Upon such a comprehensive analysis, not limited to a particular HLA allele, but rather unravelling all possibly targeted epitopes within a population, epitope hotspots may become apparent. Within an antigen, only few if any sequences show characteristics of hotspots. Thus the identification of a hotspot is always a surprising event.

Sequence | immunogenicity in HLA-DRB1*0401 transgenic mice (in words) [1] | Immunogenicity, peptide-specific IFN-gamma-producing cells, DRB1*0401 [1] | immunogenicity in HLA-A*0201 transgenic mice (in words) [2] | Immunogenicity, peptide-specific IFN-gamma-producing cells, A*0201 [2] | specific INF-γ producing T cells / HLA-DRB1*0401 epitope in HLA-DRB1*0401 transgenic mice (in words) [3] | Binding to DRB1 *0404 (HLA-DRB1*0404) | Immunogenicity, peptide-specific IFN-gamma-producing cells, B*0702 [4] | specific INF-γ producing T cells / HLA-B*0702 epitope in HLA-B*0702 transgenic mice (in words) [4] | peptide-specific IFN-gamma secreting T-cells, donor H03, after 2 rounds of in vitro stimulation (PBMC (in vitro primed)) [T-cells/10^6 PBMC] | Binding to DRB1 *0101 (HLA-DRB1*0101) | HLA-class II coverage (HLA class II)
PVNSWLGNIIQYAPT [Peptide 1560] | immunogenicity | + (immunogenic (+, less than 100 peptide-specific cells among a million splenocytes)) | immunogenicity | ++ (strongly immunogenic (++, more than 100 peptide-specific cells among a million splenocytes)) | confirmed to contain human HLA-DRB1*0401 epitopes | – | – | – | – | – | –
CGYRRCRASGVLTTS [Peptide 1558] | immunogenic; also recorded: immunogenicity | ++ (strongly immunogenic (++, more than 100 peptide-specific cells among a million splenocytes)) | immunogenicity | + (immunogenic (+, less than 100 peptide-specific cells among a million splenocytes)) | confirmed to contain human HLA-DRB1*0401 epitopes | nb (no binding) | ++ (strongly immunogenic (++, more than 100 peptide-specific cells among a million splenocytes)) | HLA-B*0702 epitopes with T-cell activating capacity | – | – | –
IQLVNTNGSWHINRTALNCNDSL [Peptide 1655] | immunogenicity | ++ (strongly immunogenic (++, more than 100 peptide-specific cells among a million splenocytes)) | immunogenicity | + (immunogenic (+, less than 100 peptide-specific cells among a million splenocytes)) | confirmed to contain human HLA-DRB1*0401 epitopes | – | – | – | – | – | –
PQRKTKRNTNRRPQD [Peptide A7] | – | – | – | – | – | – | – | – | 70 | – | –
PKPQRKTKRNTNRRP [Peptide A5] | – | – | – | – | – | – | – | – | 110 | – | –
PVNSWLGNIIMYAPT [Peptide 1559] | immunogenicity | + (immunogenic (+, less than 100 peptide-specific cells among a million splenocytes)) | immunogenicity | ++ (strongly immunogenic (++, more than 100 peptide-specific cells among a million splenocytes)) | confirmed to contain human HLA-DRB1*0401 epitopes | – | – | – | – | – | –
YLVAYQATVCARAXAPPPSWD (YLVAYQATVCARAKAPPPSWD) [Peptide 1623] | immunogenic; also recorded: immunogenicity | + (immunogenic (+, less than 100 peptide-specific cells among a million splenocytes)) | immunogenic | + (immunogenic (+, less than 100 peptide-specific cells among a million splenocytes)) | confirmed to contain human HLA-DRB1*0401 epitopes | – | + (immunogenic (+, less than 100 peptide-specific cells among a million splenocytes)) | HLA-B*0702 epitopes with T-cell activating capacity | – | * (weak binding) | –
YLVAYQATVCARAQAPPPSWD [Peptide 1547] | immunogenic; also recorded: immunogenicity | ++ (strongly immunogenic (++, more than 100 peptide-specific cells among a million splenocytes)) | – | – | confirmed to contain human HLA-DRB1*0401 epitopes | – | – | HLA-B*0702 epitopes with T-cell activating capacity | – | – | DR1,4,7,11
IQLINTNGSWHINRTALNCNDSL [Peptide 1654] | immunogenicity | ++ (strongly immunogenic (++, more than 100 peptide-specific cells among a million splenocytes)) | immunogenicity | + (immunogenic (+, less than 100 peptide-specific cells among a million splenocytes)) | confirmed to contain human HLA-DRB1*0401 epitopes | – | – | – | – | – | –
FWAKHMWNFISGIQYLAGLSTLPGNPAVASMMAF [Peptide 1592] | immunogenicity | ++ (strongly immunogenic (++, more than 100 peptide-specific cells among a million splenocytes)) | immunogenicity | ++ (strongly immunogenic (++, more than 100 peptide-specific cells among a million splenocytes)) | confirmed to contain human HLA-DRB1*0401 epitopes | – | + (immunogenic (+, less than 100 peptide-specific cells among a million splenocytes)) | HLA-B*0702 epitopes with T-cell activating capacity | – | – | –
